What was measured:
[1] = system: Human colon adenocarcinoma cell line (LS174T); experiment: BrdU incorporation proliferation assay in LS174T cells; format: cell-based; conditions: 48 h
Experimental: (§1) Human colon adenocarcinoma cell line (LS174T), human primary colon cancer cells (CC14) and primary metastatic cells (mCC11) were treated with Avermectin B1 (MicroSource Discovery systems, CT, USA), 5 μM. Control cells were treated with equivalent concentration of DMSO. 48 h after treatment, the percentage of BrdU incorporation was calculated for cells treated with Avermectin B1 as compared to control cells as follows: the number of BrdU positive cells over total number of cells expressed as percentage compared to control cells treated with DMSO only. Cells were cultivated in standard conditions (37° C., 5% CO2) in DMEM containing 10% Fetal Calf Serum.
The same assay as described in Example 1 was carried out on human colon adenocarcinoma cell line LS174T where cell samples were either treated with Abamectin (Sigma #31732) or Doramectin (Sigma #33993) at three different concentrations: 0.1, 1 and 5 μM. Control cells were treated with equivalent concentration of DMSO. 48 h after treatment, the percentage of BrdU incorporation was calculated for cells treated with each macrocyclic lactone as compared to control cells as described above.
(§2) The same assay as described in Example 1 was carried out on human primary colon cancer cells (CC14 and CC36) (TNM IV and III, respectively) and primary metastatic cells (mCC11) from the liver of the patient, on the human adenocarcinoma cell lines DLD1, LS174T, and SW180 and on human skin melanoma cell lines MeWo and SKMel2 where cell samples were treated with Ivermectin (Fabron Iberica S.A.U) or Stromectol™ (Merck & Co. Inc.) which is an oral pharmaceutical formulation of semisynthetic Ivermectin (mixture containing at least 90% 5-O-demethyl-22,23-dihydroavermectin A1a and less than 10% 5-O-demethyl-25-de(1-methylpropyl)-22,23-dihydro-25-(1-methylethyl)avermectin A1a, generally referred to as 22,23-dihydroavermectin B1a and B1b, or H2B1a and H2B1b) at different concentrations: 0.5, 1, 2.5, 5 and 10 μM (Ivermectin diluted in DMSO, Stromectol in Ethanol). Control cells were treated with equivalent concentrations of DMSO. 48 h after treatment the level of BrdU incorporation was calculated for cells treated with each macrocyclic lactone as compared to control cells as described above. IC50 values are calculated by interpolation from a dose response curve fitted using PRISM (Graphpad Software).

[2] = system: human primary colon cancer cells (CC36); experiment: BrdU incorporation proliferation assay in CC36 cells; format: cell-based; conditions: 48 h
Experimental: as §1
The same assay as described in Example 1 was carried out on human primary colon cancer cells (CC14 and CC36) (TNM IV and III, respectively) and primary metastatic cells (mCC11) from the liver of the patient where cell samples were treated with Abamectin (Sigma #31732) at three different concentrations: 0.1, 1 and 5 μM. Control cells were treated with equivalent concentrations of DMSO. 48 h after treatment the level of BrdU incorporation was calculated for cells treated with each macrocyclic lactone as compared to control cells as described above. […]

[3] = system: primary metastatic cells (mCC11); experiment: BrdU incorporation proliferation assay in mCC11 cells; format: cell-based, human; conditions: 48 h
Experimental: as §1
(§3) The same assay as described in Example 1 was carried out on human primary colon cancer cells (CC14 and CC36) (TNM IV and III, respectively) and primary metastatic cells (mCC11) from the liver of the patient where cell samples were treated with Abamectin (Sigma #31732) at three different concentrations: 0.1, 1 and 5 μM. Control cells were treated with equivalent concentrations of DMSO. 48 h after treatment the level of BrdU incorporation was calculated for cells treated with each macrocyclic lactone as compared to control cells as described above.
as §2, with “Control cells were treated with equivalent concentrations of DMSO. 48 h after treatment the level of BrdU incorporation was calculated for cells treated with each macrocyclic lactone as compared to control cells as described above. IC50 values are calculated by interpolation from a dose response curve fitted using PRISM (Graphpad Software).” left out

[4] = system: human primary colon cancer cells (CC14); experiment: BrdU incorporation proliferation assay in CC14 cells; format: cell-based; conditions: 48 h
Experimental: as §1, §3
as §2, with “Control cells were treated with equivalent concentrations of DMSO. 48 h after treatment the level of BrdU incorporation was calculated for cells treated with each macrocyclic lactone as compared to control cells as described above. IC50 values are calculated by interpolation from a dose response curve fitted using PRISM (Graphpad Software).” left out

Wnt pathway = experiment: Key Wnt target gene expression by quantitative real time PCR in LS174 cells; format: cell-based, human; conditions: 12 h after 5 μM Avermectin B1 (vs DMSO) or dnTCF4 expression (vs control plasmid)
Experimental: Key Wnt target gene expression was determined by quantitative real time PCR in LS174 colon adenocarcinoma cell line expressing a dominant negative TCF4 cDNA (dnTCF4) or 12 h after treatment with 5 μM Avermectin B1 (MicroSource Discovery systems, CT, USA). Control cell samples were treated with equivalent concentrations of DMSO. Cells were cultivated in standard conditions as described in Example 1.
Expression levels of individual genes are shown as a percentage compared to their expression levels in control cells treated with DMSO only in the case of Avermectin B1, or transfected with control plasmid in the case of dnTCF4, and are shown in Table 1 below: […]

[5] = system: human skin melanoma cell line MeWo; experiment: BrdU incorporation proliferation assay in MeWo cells; format: cell-based; conditions: MeWo, 0.5, 1, 2.5, 5 and 10 μM, 48 h
Experimental: as §1, with “Serum. […]” for “Serum.”

[6] = system: human adenocarcinoma cell line DLD1; experiment: BrdU incorporation proliferation assay in DLD1 cells; format: cell-based; conditions: DLD1, 0.5, 1, 2.5, 5 and 10 μM, 48 h
Experimental: as §1, with “Serum. […]” for “Serum.”

[7] = system: human skin melanoma cell line SKMel2; experiment: BrdU incorporation proliferation assay in SKMel2 cells; format: cell-based; conditions: SKMel2, 0.5, 1, 2.5, 5 and 10 μM, 48 h
Experimental: as §1, with “Serum. […]” for “Serum.”

[8] = system: human glioblastoma cancer cell lines and cells from primary human glioblastoma tumors; experiment: BrdU incorporation proliferation assay in glioblastoma cells; format: cell-based; conditions: 48 h
[9] = system: human DLD1 CC cell xenografts; experiment: Mouse xenografts of human colon cancer (DLD1) cells; format: in vivo, nude NMRI mice; conditions: DLD1 xenografts in nude mice, 10 mg/kg; comparable to dnTCF4 (transgenic Wnt inhibition)
Experimental: Six- to eight-week-old female nude NMRI (Naval Medical Research Institute) mice each receive two injections of 10^5-10^6 human DLD1 CC cells on their backs as independent subcutaneous xenografts. As soon as the tumor is palpable (1-2 mm) (usually 7-10 days following xenograft), a range of concentrations of Ivermectin (Fabron Iberica S.A.U) or Abamectin (Sigma #31732) (0 (excipient only), 10, 50 and 100 mg/kg/day) is given by oral gavage combined with corn oil or is administered intra-peritoneally (IP) combined with 2-hydroxypropyl-β-cyclodextrin (Sigma, 45% solution) in a second set of experiments. Tumor size is periodically measured with a caliper. Mice are sacrificed before the tumors approach the legal size limit and the tumors are removed and analysed for proliferation (BrdU assay), apoptosis (Caspase3 assay, Varnat et al., 2009, EMBO Mol. Med., 1, 338-351) and invasion (Varnat et al., 2010, above). Control mice are treated with carrier-only control cells, or cells expressing a dominant-negative TCF4 construct (dnTCF4), which acts to actively repress Wnt-TCF signalling.

[10] = system: human adenocarcinoma cell line SW180; experiment: BrdU incorporation proliferation assay in SW180 cells; format: cell-based; conditions: SW180, 0.5, 1, 2.5, 5 and 10 μM, 48 h
Experimental: as §1, with “Serum. […]” for “Serum.”

CO[C@H]1C[C@H](O[C@H]2[C@H](C)O[C@@H](O[C@@H]3/C(C)=C/C[C@@H]4C[C@@H](C[C@]5(C=C[C@H](C)[C@@H](C6CCCCC6)O5)O4)OC(=O)[C@@H]4C=C(C)[C@@H](O)[C@H]5OC/C(=C\C=C\[C@@H]3C)[C@]54O)C[C@@H]2OC)O[C@@H](C)[C@@H]1O [Doramectin, 25-cyclohexyl-5-O-demethyl-25-de(1-methylpropyl)avermectin A1a]
proliferation (BrdU incorporation), dose-effect ([1]; LS174T, 0.1, 1 and 5 μM): decreases proliferation in a dose-dependent manner

Abamectin
proliferation (BrdU incorporation), dose-effect ([1]; LS174T, 0.1, 1 and 5 μM): decreases proliferation in a dose-dependent manner
proliferation (BrdU incorporation), dose-effect ([2]; CC36, 0.1, 1 and 5 μM): decreases proliferation in a dose-dependent manner
proliferation (BrdU incorporation), dose-effect ([3]; mCC11, 0.1, 1 and 5 μM): decreases proliferation in a dose-dependent manner
proliferation (BrdU incorporation), dose-effect ([4]; CC14, 0.1, 1 and 5 μM): decreases proliferation in a dose-dependent manner

Avermectin B1
AXIN2 expression level as percentage compared to control cells (Wnt pathway): 62%
C-MYC expression level as percentage compared to control cells (Wnt pathway): 35%
EPHB2 expression level as percentage compared to control cells (Wnt pathway): 78%
EPHB3 expression level as percentage compared to control cells (Wnt pathway): 55%
EPNB1 expression level as percentage compared to control cells (Wnt pathway): 277%
LGR5 expression level as percentage compared to control cells (Wnt pathway): 3%
P21 expression level as percentage compared to control cells (Wnt pathway): 635%
proliferation (percentage of BrdU incorporation compared to DMSO control) ([1]; LS174T, 5 μM): decreases to a minimum of half the proliferation
proliferation (percentage of BrdU incorporation compared to DMSO control) ([3]; mCC11, 5 μM): decreases to a minimum of half the proliferation
proliferation (percentage of BrdU incorporation compared to DMSO control) ([4]; CC14, 5 μM): decreases to a minimum of half the proliferation

Ivermectin
proliferation (BrdU incorporation), dose-effect [5]: decreases proliferation in a dose-dependent manner
proliferation (BrdU incorporation), dose-effect [6]: decreases proliferation in a dose-dependent manner
proliferation (BrdU incorporation), dose-effect [7]: decreases proliferation in a dose-dependent manner
proliferation (BrdU incorporation), dose-effect ([1]; LS174T, 0.5, 1, 2.5, 5 and 10 μM): decreases proliferation in a dose-dependent manner
proliferation (BrdU incorporation), dose-effect ([2]; CC36, 0.5, 1, 2.5, 5 and 10 μM): decreases proliferation in a dose-dependent manner
proliferation (BrdU incorporation), dose-effect [8]: decreases proliferation in a dose-dependent manner
proliferation (BrdU incorporation), dose-effect ([3]; mCC11, 0.5, 1, 2.5, 5 and 10 μM): decreases proliferation in a dose-dependent manner
colon cancer xenograft growth [9]: able to inhibit colon cancer xenograft growth
proliferation (BrdU incorporation), dose-effect ([4]; CC14, 0.5, 1, 2.5, 5 and 10 μM): decreases proliferation in a dose-dependent manner
proliferation (BrdU incorporation), dose-effect [10]: decreases proliferation in a dose-dependent manner

Reference: US9351988B2, “Macrocyclic lactones and use thereof” (UNIVERSITE DE GENEVE, priority 2011, dated 2016)
